# Laboratory results taken from US7375058B2, “Herbicidal mixtures based on 3-phenyluracils” (priority 2002, dated 2008).
# Experiments:
# Conditions in all cases: 21 days
# GALAP = assay: Greenhouse post-emergence herbicidal action against GALAP; assay type: in vivo, Galium aparine
# Excerpt: (§1) For the post-emergence treatment, the test plants were first grown to a height of 3 to 20 cm, depending on the plant habit, and only then treated. Here, the herbicidal compositions were suspended or emulsified in water as distribution medium and sprayed using finely distributing nozzles
# (§2) The respective components A and B and/or C were formulated as 10% by weight strength emulsion concentrate and introduced to the spray liquor with the amount of solvent system used for applying the active compound. In the examples, the solvent used was water.
# (§3) The test period extended over 21 days. During this time, the plants were tended, and their response to the treatments with active compound was evaluated.
# (§4) The evaluation for the damage caused by the chemical compositions was carried out using a scale from 0 to 100%, compared to the untreated control plants. Here, 0 means no damage and 100 means complete destruction of the plants.
# (§5) In the examples below, the value E which is to be expected if the activity of the individual compounds is just additive was calculated using the method of S. R. Colby (1967) “Calculating synergistic and antagonistic responses of herbicide combinations”, Weeds 15, p. 22 ff. E=X+Y−([…]) where • X=effect in percent using active compound A at an application rate a; • Y=effect in percent using active compound B at an application rate b; • E=expected effect (in %) of A+B at application rates a+b.
# (§6) If the observed effect is higher than the value E calculated according to Colby, a synergistic effect is present.
# ABUTH = assay: Greenhouse post-emergence herbicidal action against ABUTH; assay type: in vivo, Abutilon theophrasti
# Excerpt: as §1, §2, §3, §4, §5, §6
# ALOMY = assay: Greenhouse post-emergence herbicidal action against ALOMY; assay type: in vivo, Alopecurus myosuroides
# Excerpt: as §1, §2, §3, §4, §5, §6
# BIDPI = assay: Greenhouse post-emergence herbicidal action against BIDPI; assay type: in vivo, Bidens pilosa
# Excerpt: as §1, §2, §3, §4, §5, §6
# BRAPL = assay: Greenhouse post-emergence herbicidal action against BRAPL; assay type: in vivo, Brachiaria plantaginea
# Excerpt: as §1, §2, §3, §4, §5, §6
# AVEFA = assay: Greenhouse post-emergence herbicidal action against AVEFA; assay type: in vivo, Avena fatua
# Excerpt: as §1, §2, §3, §4, §5, §6
# POLPE = assay: Greenhouse post-emergence herbicidal action against POLPE; assay type: in vivo, Polygonum persicaria
# Excerpt: as §1, §2, §3, §4, §5, §6
# ECHCG = assay: Greenhouse post-emergence herbicidal action against ECHCG; assay type: in vivo, Echinochloa crus-galli
# Excerpt: as §1, §2, §3, §4, §5, §6
# [1] = application rate g/ha: I.14 0.49, b2.3 0.98
# [2] = application rate g/ha: I.14 0.98, b2.3 1.95
# [3] = application rate g/ha: I.7 1.95, b3.1 62.5
# [4] = application rate g/ha: I.7 3.91, b3.1 125
# [5] = application rate g/ha: I.7 1.95, b3.2 62.5
# [6] = application rate g/ha: I.7 3.91, b3.2 125
# [7] = application rate g/ha: I.8 0.98, b5.1 7.81
# [8] = application rate g/ha: I.8 1.95, b5.1 15.63
smiles,measurement,setting,value
"CCO/N=C(\CC)C1=C(O)CC(c2c(C)cc(C)cc2C)CC1=O (stereo not drawn) [b1.1, tralkoxydim, reference compound]",Herbicidal action against GALAP found,"GALAP; application rate g/ha: I.1 1.95, b1.1 62.5",0%
same,Herbicidal action against GALAP found,"GALAP; application rate g/ha: I.1 3.91, b1.1 125",0%
"CCCC(=NOCC(C)Oc1ccc(Cl)cc1)C1=C(O)CC(C2CCCSC2)CC1=O (stereo not drawn) [b1.2, profoxydim, reference compound]",Herbicidal action against ABUTH found,"ABUTH; application rate g/ha: I.1 1.95, b1.2 31.25",30%
same,Herbicidal action against ABUTH found,"ABUTH; application rate g/ha: I.1 3.91, b1.2 62.5",40%
"COCc1cnc(C2=NC(C)(C(C)C)C(=O)N2)c(C(=O)O)c1 (stereo not drawn) [b2.1, imazamox, reference compound]",Herbicidal action against ALOMY found,"ALOMY; application rate g/ha: I.8 0.49, b2.1 7.81",40%
same,Herbicidal action against ALOMY found,"ALOMY; application rate g/ha: I.8 0.98, b2.1 15.63",70%
"CCc1cnc(C2=NC(C)(C(C)C)C(=O)N2)c(C(=O)O)c1 (stereo not drawn) [b2.2, imazethapyr, reference compound]",Herbicidal action against BIDPI found,"BIDPI; application rate g/ha: I.8 0.49, b2.2 7.81",20%
same,Herbicidal action against BIDPI found,"BIDPI; application rate g/ha: I.8 0.98, b2.2 15.63",20%
"COc1cc(OC)nc(NC(=O)NS(=O)(=O)c2ncccc2C(=O)N(C)C)n1 [b2.3, nicosulfuron, reference compound]",Herbicidal action against ALOMY found,ALOMY; [1],50%
same,Herbicidal action against ALOMY found,ALOMY; [2],60%
same,Herbicidal action against BRAPL found,BRAPL; [1],70%
same,Herbicidal action against BRAPL found,BRAPL; [2],70%
"CCNc1nc(Cl)nc(NC(C)C)n1 [b3.1, atrazine, reference compound]",Herbicidal action against AVEFA found,AVEFA; [3],0%
same,Herbicidal action against AVEFA found,AVEFA; [4],0%
same,Herbicidal action against POLPE found,POLPE; [3],50%
same,Herbicidal action against POLPE found,POLPE; [4],60%
"CN(C)C(=O)Nc1ccc(Cl)c(Cl)c1 [b3.2, diuron, reference compound]",Herbicidal action against ECHCG found,ECHCG; [5],15%
same,Herbicidal action against ECHCG found,ECHCG; [6],20%
same,Herbicidal action against BRAPL found,BRAPL; [5],25%
same,Herbicidal action against BRAPL found,BRAPL; [6],60%
"CC(C)c1ccc(NC(=O)N(C)C)cc1 [b3.3, isoproturon, reference compound]",Herbicidal action against ABUTH found,"ABUTH; application rate g/ha: I.7 0.98, b3.3 31.25",0%
same,Herbicidal action against ABUTH found,"ABUTH; application rate g/ha: I.7 1.95, b3.3 62.5",40%
"C[n+]1ccc(-c2cc[n+](C)cc2)cc1 [b3.4, paraquat, reference compound]",Herbicidal action against ABUTH found,"ABUTH; application rate g/ha: I.7 0.98, b3.4 31.25",0%
same,Herbicidal action against ABUTH found,"ABUTH; application rate g/ha: I.7 1.95, b3.4 62.5",40%
"CCOC(=O)/C(Cl)=C/c1cc(N2C(=O)C3=C(CCCC3)C2=O)ccc1Cl [b4.1, cinidon-ethyl, reference compound]",Herbicidal action against POLPE found,"POLPE; application rate g/ha: I.1 0.49, b4.1 0.98",40%
same,Herbicidal action against POLPE found,"POLPE; application rate g/ha: I.1 0.98, b4.1 1.95",50%
"O=C(Nc1ccc(F)cc1)c1cccc(Oc2cccc(C(F)(F)F)c2)n1 [b5.1, picolinafen, reference compound]",Herbicidal action against POLPE found,POLPE; [7],30%
same,Herbicidal action against POLPE found,POLPE; [8],40%
same,Herbicidal action against BRAPL found,BRAPL; [7],20%
same,Herbicidal action against BRAPL found,BRAPL; [8],20%
